Results on 1 compound are retold here after patent US20260219274A1, “POLYOL SWEETNERS AND CARDIOVASCULAR AND THROMBOTIC EVENT RISK” (THE CLEVELAND CLINIC FOUNDATION, priority 2023, published 2026).

Data set [1] relates to human whole blood. Description: Imaging flow cytometry of platelet-leukocyte aggregates in whole blood. It is filed as cell-based. The note with it: pre-incubation with physiological levels of xylitol, TRAP6 7.5 μM. On the procedure:
Imaging flow cytometry was performed on an Amnis ImageStreamX MK II two-camera system using anti-CD45 AF488, anti-CD41 AF647 and anti-CD62P-PE. Details and the gating strategy are described in supplemental methods.
Whole blood collected from consented healthy volunteers was incubated with xylitol (30 or 100 μM) or vehicle for 30 min. Where indicated, the samples were then stimulated with 7.5 μM TRAP6 for 10 min. Blood samples were then incubated with anti-CD45 AF488 (Catalogue #FAB1430G, R&D Systems, MN, USA), anti-CD41 AF647 (Catalogue #303726, Biolegend, San Diego, CA, USA) and anti-CD62P-PE (Catalogue #555524, BD PharMingen, San Diego, CA, USA) for 20 min at room temperature in the dark. After gentle red blood cell lysis using VersaLyse Lysing solution (Catalogue #A09777, Beckman Coulter, Brea, California, USA), cells were gently spun down and resuspended in HBSS-BSA. Platelet leucocyte aggregates were measured on an Amnis ImageStreanX MK II two-camera system (Luminex, Austin, TX, USA). Data were analyzed using Amnis IDEAS software (Luminex, Austin, TX, USA).
IDEAS analysis was performed as follows. Gating out of focus events using Gradient RMS in the brightfield image. Gating on CD45+ events using the Intensity and Max Pixel features. Elimination of false positive CD45 events and selection of only true CD45+ cells using Intensity vs. Area of CD45+. […]

Data set [2] can be described thus: Xylitol intervention study: postprandial plasma xylitol levels and elimination. Format: in vivo. How it is done: A third xylitol intervention study (clinicaltrials.gov number: NCT04731363) included 10 prospectively recruited healthy volunteers (35±11 years of age, 50% male, nonsmokers without CVD, hypertension, or diabetes). Fasting (overnight) subjects were provided a standardized artificially sweetened beverage (300 mL) containing 30 g of xylitol dissolved in water with instructions to rapidly consume the drink (within 2 minutes). In the first part of xylitol ingestion studies, pharmacokinetics studies focused on post-prandial plasma levels and time course of elimination of xylitol. For LC-MS/MS analysis of xylitol, serial venous blood and urine sampling was performed at baseline, 30 min, 1 h, 4 h, 6 h and 24 h to establish postprandial peak levels and the time course of xylitol elimination in the first 4 subjects. After we noticed that xylitol levels were rapidly cleared with postprandial xylitol peak levels at 30 min after ingestion in all 4 subjects, we streamlined our protocol in the interest of being both practical and less demanding on subjects, and sampled blood and urine at baseline and after 30 min for the remainder of subjects.
Stable-isotope-dilution LC-MS/MS was developed to specifically quantify xylitol in human and mouse plasma, urine and feces (fecal pellets were dissolved in water and supernatant subjected to LC-MS/MS). Ice cold methanol (800 μL) and internal standard (^13C2-arabitol) were added to the plasma samples (20 μL) or urine (20 μL) previously diluted in MQ water, followed by vortexing and centrifuging (21,000×g; 4° C. for 15 min). The clear supernatant (800 μL) was transferred into a clean, labeled glass tubes (Borosilicate glass 12×75 mm) and dried in a speed vacuum concentrator (Speed vac plus, SC210, Thermo Sevant). Acetylation was used since xylitol is poorly ionizable in order to achieve better retention on the reverse phase column and separation from other structural isomers as well as better ionization to achieve better sensitivity. The dry residue was reconstituted in acetic anhydride (100 μL) and 4-Dimethylaminopyridine (DMAP) in pyridine (100 μl; 1 mg/mL), sealed with safety caps, vortexed and heated (45 min at 80° C.) followed with drying under nitrogen. Dried residues were dissolved in HCl in water (0.1 M; 0.5 mL) and extracted with ethylacetate (2.0 mL). Ethylacetate layer was transferred into a clean glass tube (Borosilicate glass 12×75 mm) and dried under nitrogen. The dry residue was reconstituted in ammonium formate in a mixture of methanol:water (100 μL; 50:50 v/v with 10 mM ammonium formate), tubes were vortexed and liquid was transferred to glass vials with micro-insets and caped. LC-MS/MS analysis was performed on a chromatographic system consisting of two Shimadzu LC-30 AD pumps (Nexcra X2), a CTO 20AC oven operating at 30° C., and a SIL-30 AC-MP autosampler in tandem with a triple quadruple mass spectrometer (8050 series, Shimadzu Scientific Instruments, Inc., Columbia, MD, USA). For chromatographic separation, a Kinetex C18 column (50 mm×2.1 mm; 2.6 μm) (Cat #00B-4462-AN, Phenomenex, Torrance, CA) was used. […] Electrospray ionization in the positive mode was used with multiple reaction monitoring (MRM) for detection of endogenous and stable isotope labeled internal standards. The following transitions were used: m/z 380 [M^+NH4]^+ […] for xylitol, arabitol and ribitol and m/z 382 [M+NH4]^+→305 for [^13C2]-arabitol. The following ion source parameters were applied: nebulizing gas flow, 3 L/min; heating gas flow, 10 L/min; interface temperature, 300° C.; desolvation line temperature, 250° C.; heat block temperature, 400° C.; and drying gas flow, 10 L/min. Accuracy and precision of the method to quantify xylitol (separated from its structural isomers arabitol and ribitol) were assessed by a standard addition method of pure synthetic standard into different plasma pools. […]

In the case of `OC[C@@H](O)[C@H](O)[C@@H](O)CO` [xylitol], the “TRAP6 stimulated platelet-leukocyte aggregates” value in data set [1] is on record as “dose-dependent increase”. Moreover, the concentration at 30 min in data set [2] (both sexes, human, plasma, oral, 30 min following ingestion of 30 g xylitol, read-out: plasma levels of xylitol, median [IQR]) amounted to 312000 nM. Also, the concentration at 4 h in data set [2] (both sexes, human, plasma, oral, 4 h after 30 g xylitol, read-out: plasma xylitol levels, median [IQR]) worked out at 1870 nM. In addition, in data set [2] (both sexes, human, plasma, oral, 6 h after 30 g xylitol, read-out: plasma xylitol levels, median [IQR]), the concentration at 6 h stood at 670 nM. In data set [2] (both sexes, human, plasma, 30 g xylitol oral), the half-life stood at 12.6 min. Further, the “time of postprandial xylitol peak levels” value in data set [2] (first 4 subjects) was 30 min. For the same compound, the “time to return of postprandial plasma levels to near baseline” value in data set [2] (healthy volunteers) was at most 6 h. For the same compound, in data set [2] (oral ingestion), the “oral absorption in humans” value is reported as “readily absorbed”.
